Measured values as given in patent publication US5362740A, “Dihydrobenzofuran carboxamides and process for their preparation” (Farmitalia Carlo Erba S.r.l., priority 1990, dated 1994).

Assays:
5HT3 receptor [1] = target: T1, 5HT3 receptor (Rattus norvegicus, UniProt P35563); assay: Inhibition of the Bezold-Jarisch chemoreflex evoked by 5-HT in the anesthetized rat (in vivo 5HT3 antagonist activity); design: evoked by 5-HT in the anesthetised rat; from tissue; host or cells: whole anesthetized rat (in vivo); conditions: 5-HT 20 μg/kg I.V.; for % inhibition: mean ± S.E.M. from 6 animals, *p < 0.01 vs controls (Dunnett's test); for ED50: iv, I.V., anesthetized rat, read-out: ED50 (limits)
T1 sequence (P35563 24-483): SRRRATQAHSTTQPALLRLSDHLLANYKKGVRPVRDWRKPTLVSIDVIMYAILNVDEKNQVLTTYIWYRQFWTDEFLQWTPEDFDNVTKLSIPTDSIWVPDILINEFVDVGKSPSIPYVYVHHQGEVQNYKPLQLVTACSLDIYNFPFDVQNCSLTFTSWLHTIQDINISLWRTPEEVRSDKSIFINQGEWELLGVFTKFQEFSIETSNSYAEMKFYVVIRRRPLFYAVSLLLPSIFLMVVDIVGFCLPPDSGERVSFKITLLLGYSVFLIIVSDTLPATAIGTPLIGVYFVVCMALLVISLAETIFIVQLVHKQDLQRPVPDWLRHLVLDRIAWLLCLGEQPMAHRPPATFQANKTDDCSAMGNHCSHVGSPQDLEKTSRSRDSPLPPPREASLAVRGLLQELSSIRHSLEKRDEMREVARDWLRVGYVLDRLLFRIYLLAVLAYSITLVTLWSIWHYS
Procedure: Ther. 248, 197-201 (1989).
Inhibition of the Bezold-Jarisch reflex elicited by 5-HT (20 μg/
Values are mean ± S.E.M. from 6 animals

5-HT3 receptor = assay: Inhibition of the binding of ^3 H-GR65630; 5-HT3 binding affinity for rat entorhinal cortex; conditions: [^3 H] GR 65630 labeled 5HT3 sites; rat entorhinal cortex; two site non-linear fitting, low
5HT3 receptor [2] = target: T1, 5HT3 receptor; assay: as above; design: labeled in the entorhinal cortex of the rat brain; from tissue; host or cells: rat brain entorhinal cortex; conditions: for fitting model of interaction / displacement of ^3 H-GR 65630: rat entorhinal cortex

| SMILES | % inhibition (5HT3 receptor [1]; 0.1 μg/kg I.V.) [%] | % inhibition (5HT3 receptor [1]; 0.3 μg/kg I.V.) [%] | % inhibition (5HT3 receptor [1]; 1 μg/kg I.V.) [%] | ED50 (5HT3 receptor [1]) [µg/kg] | Ki (5-HT3 receptor) [nM] | Ki (5HT3 receptor [2]) [nM] | fitting model of interaction / displacement of ^3 H-GR 65630 (5HT3 receptor [2]) | % inhibition (5HT3 receptor [1]; 3 μg/kg I.V.) [%] | % inhibition (5HT3 receptor [1]; 10 μg/kg I.V.) [%] |
| --- | --- | --- | --- | --- | --- | --- | --- | --- | --- |
| CN1C2CCC1CC(NC(=O)c1cc(Cl)c(N)c3c1OCC3)C2 (stereo not drawn) [FCE 27271, 4-amino-5-chloro-N-(8-methyl-8-azabicyclo[3.2.1]oct-3-yl)-2,3-dihydrobenzo[b]furan-7-carboxamide] | 23.83 ± 5.50 | 55.69 ± 4.05 | 82.54 ± 2.33 | 0.81 | 96.2 | 0.833 | two site non-linear fitting model | – | – |
| Cc1nccn1CC1CCc2c(c3ccccc3n2C)C1=O (racemic) [Ondansetron, (±)-1,2,3,4-tetrahydro-9-methyl-3-(2-methylimidazol-1-yl-methyl)-carbazol-4-one, reference compound] | – | – | 32.86 ± 8.58 | 2.25 | – | – | two site non-linear fitting model | 58.42 ± 3.89 | 81.21 ± 1.82 |
| CN1C2CCC1CC(OC(=O)c1cc(Cl)cc(Cl)c1)C2 (stereo not drawn) [MDL 72222, reference compound] | – | – | – | – | – | – | one site non-linear fitting | – | – |
| CCN(CC)CCNC(=O)c1cc(Cl)c(N)cc1OC [Metoclopramide, reference compound] | – | – | – | – | – | – | one site non-linear fitting | – | – |
| CN1C2CCCC1CC(NC(=O)c1cc(Cl)c(N)c3c1OCC3)C2 (stereo not drawn) [FCE 27270, 4-amino-5-chloro-N-(9-methyl-9-azabicyclo[3.3.1]non-3-yl)-2,3-dihydrobenzo[b]furan-7-carboxamide] | 37.25 ± 2.77 | 54.09 ± 3.39 | 89.11 ± 3.39 | 0.2 | 39 | 0.092 | two site non-linear fitting model | – | – |
